The source of these data is ChEMBL document CHEMBL1201862, “PubChem BioAssay data set” (2004).

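Method: 48-hour compound exposure of cells in 96-well plates, five concentrations, linear interpolation of endpoints. GI50 = concentration required for 50% inhibition of growth.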 The source made the active and inactive calls. Rule as the data show it: active = GI50 up to about 1.1 µM and inactive = higher.

Among the test systems are BT-549; SK-MEL-5; SF-539; SF-295; COLO 205; M14; KM12; HOP-92; HCC 2998; Malme-3M; SK-MEL-28; HCT-116; NCI-H23; NCI-H460; KM-20L2; K562; OVCAR-5; HCT-15; 786-0; MDA-MB-231.
Test in all cases: DTP human tumour cell line panel, 48 h

In general, GI50 refers to the concentration that inhibits growth by half.

Consider `CC(C)(C)NNc1c([N+](=O)[O-])cnn(-c2ccccc2)c1=O`, for which the GI50 with BT-549 is 1.41 µM (inactive); in the test on SK-MEL-5 it was 4.51 µM (inactive); with SF-539 it was 13.2 µM (inactive); in the test on SF-295, 6.28 µM (inactive); in the test on COLO 205 it was 4.63 µM (inactive); with M14 it was 2.17 µM (inactive). The GI50 is 10.4 µM (inactive) in the test on KM12; 6.5 µM (inactive) with HOP-92; 7.14 µM (inactive) in the test on HCC 2998; 4.05 µM (inactive) with Malme-3M; 2.49 µM (inactive) in the test on SK-MEL-28; 2.46 µM (inactive) in the test with HCT-116. In addition, the GI50 with NCI-H23 was 4.82 µM (inactive); in the test on NCI-H460, 7.36 µM (inactive); in the test on KM-20L2 it was 6.44 µM (inactive); in the test with K562, 0.942 µM (active); in the test on OVCAR-5 it was 8.81 µM (inactive); with HCT-15, 3.95 µM. Further, the GI50 in the test with 786-0 was 6.24 µM (inactive).

Regarding `C/C(=N\N)C(CN1CCOCC1)C(c1ccccc1)c1c(O)c2ccccc2oc1=O` (configuration not stated), the GI50 in the test on BT-549 is 32.3 µM (inactive); with SK-MEL-5, > 64.9 µM (inactive); in the test with SF-539, > 100 µM (inactive); with MDA-MB-231 it was 91 µM (inactive); in the test on SF-295, > 100 µM (inactive); in the test on COLO 205, > 44.8 µM (inactive). Also, the GI50 is > 76.6 µM (inactive) with M14; > 81.1 µM (inactive) in the test with KM12; 26.3 µM (inactive) in the test with HOP-92; > 100 µM (inactive) with HCC 2998; > 64.7 µM (inactive) in the test with Malme-3M; > 100 µM (inactive) with SK-MEL-28. For the same compound, the GI50 in the test with HCT-116 is > 100 µM (inactive); in the test with NCI-H23, > 100 µM (inactive); with NCI-H460 it was > 80.7 µM (inactive); in the test with KM-20L2, > 100 µM (inactive); in the test with K562, 47.6 µM (inactive); in the test on OVCAR-5 it was > 100 µM (inactive). Moreover, the results for the GI50 with HCT-15 and in the test on 786-0 were over 100 µM and > 95.1 µM (inactive), respectively.

Turning to `C1=Cc2nc1c(-c1ccccc1)c1ccc([n-]1)c(-c1ccccc1)c1nc(c(-c3ccccc3)c3ccc([n-]3)c2-c2ccccc2)C=C1.[Zn+2]`, the GI50 with SK-MEL-5, with SF-539, in the test with SF-295, with COLO 205, in the test with M14 and in the test on KM12 was > 100 µM (inactive) in each case. For the same compound, the GI50 in the test with HOP-92, in the test on HCC 2998, in the test with Malme-3M, with SK-MEL-28, with HCT-116 and with NCI-H23 was > 100 µM (inactive) throughout. Moreover, the GI50 is > 100 µM (inactive) with NCI-H460; > 100 µM (inactive) in the test on KM-20L2; > 100 µM (inactive) in the test with K562; > 100 µM (inactive) in the test on OVCAR-5; over 100 µM in the test with HCT-15; > 100 µM (inactive) in the test on 786-0.

Consider `O=P(NC12CC3CC(CC(C3)C1)C2)(N1CC1)N1CC1`, for which the GI50 in the test with BT-549 was > 100 µM (inactive); in the test with SK-MEL-5 it was 34.9 µM (inactive); with SF-539 it was 15.9 µM (inactive); with MDA-MB-231, > 100 µM (inactive); in the test on SF-295 it was 10 µM (inactive); in the test with COLO 205, > 100 µM (inactive). For the same compound, the GI50 is 37.1 µM (inactive) with M14; > 100 µM (inactive) in the test with KM12; 18.5 µM (inactive) in the test on HOP-92; > 100 µM (inactive) in the test with HCC 2998; 84.9 µM (inactive) with Malme-3M; > 100 µM (inactive) in the test on SK-MEL-28. Besides, the GI50 in the test on HCT-116 is 43.7 µM (inactive); in the test on NCI-H23, 6.05 µM (inactive); in the test with NCI-H460, 2.46 µM (inactive); in the test with KM-20L2 it was > 100 µM (inactive); in the test on K562, 37.6 µM (inactive); in the test with OVCAR-5, > 100 µM (inactive). Also, the GI50 is over 68.5 µM in the test on HCT-15 and 23.2 µM (inactive) in the test with 786-0.
